Data set [1] deals with RAW264.7. Kind of data set: cells. Conditions: Mus musculus, RAW264.7, 120 h.
Description: Antiosteoclast activity in mouse RAW264.7 cells assessed as inhibition of RANKL-induced osteoclast differentiation after 5 days by TRAP assay
Data set [2] can be described thus: Cytotoxicity against mouse RAW264.7 cells assessed as inhibition of cell viability at 2 uM after 24 hrs by MTT assay. In kind it is cell-based. The conditions noted are these: read-out: INH.
The nature of data set [3]: Cytotoxicity against mouse RAW264.7 cells assessed as inhibition of cell viability at 5 uM after 24 hrs by MTT assay. The conditions noted are these: read-out: INH. In kind it is cell-based. For orientation: Tetrazolium dyes change colour on reduction, which living cells bring about.
Data set [4] deals with Rattus norvegicus. The data set is described as follows: Antiosteoporotic effect in ovariectomy rat model assessed as increase in bone mineral density of lumbar spine L3 to L5 at 10 mg/kg/day, po administered for 4 weeks by dual-energy X-ray absorptiometry relative to control. It is filed as functional, organism-based.
The subject of data set [5] is RAW264.7. The data set is described as follows: Downregulation of RANKL-induced CTR mRNA expression in mouse RAW264.7 cells at 1 to 5 uM after 4 days by RT-qPCR analysis. It is filed as functional, cell-based. (In general: Quantitative PCR measures a nucleic acid by following its amplification.)
In data set [6] the test system is RAW264.7. Kind of data set: Antiosteoclast activity in mouse RAW264.7 cells assessed as reduction in multinucleated osteoclasts at 2 to 20 uM after 5 days by TRAP assay. In kind it is functional, cell-based.
Data set [7] has as its system Rattus norvegicus. The data set is described as follows: Toxicity in ovariectomy rat model assessed as undeveloped endometrial gland at 0.1 to 10 mg/kg/day, po administered for 4 weeks by haematoxylin/eosin staining based microscopy. It is filed as organism-based. The conditions noted are these: in vivo, 672 h.
Data set [8] is described as follows: Cytotoxicity against mouse RAW264.7 cells assessed as inhibition of cell viability at 10 uM after 24 hrs by MTT assay. In kind it is cell-based. The conditions noted are these: read-out: INH.
Data set [9] relates to Rattus norvegicus. The data set is described as follows: Antiosteoporotic effect in ovariectomy rat model assessed as increase in bone mineral density of lumbar spine L3 to L5 at 1 mg/kg/day, po administered for 4 weeks by dual-energy X-ray absorptiometry relative to control. In kind it is functional, organism-based.
In data set [10] the test system is Rattus norvegicus. The data set is described as follows: Toxicity in ovariectomy rat model assessed as undeveloped endometrial luminal epithelium at 0.1 to 10 mg/kg/day, po administered for 4 weeks by haematoxylin/eosin staining based microscopy. The conditions noted are these: in vivo, 672 h. In kind it is organism-based.
Data set [11] concerns RAW264.7. Kind of data set: Downregulation of RANKL-induced c-Fos mRNA expression in mouse RAW264.7 cells at 1 to 5 uM after 2 days by RT-qPCR analysis. It is filed as functional, cell-based.
Data set [12] relates to RAW264.7. Kind of data set: Downregulation of RANKL-induced NFATc1 protein expression in mouse RAW264.7 cells at 5 uM after 2 days by Western blot analysis. It is filed as functional, cell-based.
Data set [13] concerns RAW264.7. The data set is described as follows: Downregulation of RANKL-induced TRAP mRNA expression in mouse RAW264.7 cells at 1 to 5 uM after 4 days by RT-qPCR analysis. In kind it is functional, cell-based.
The subject of data set [14] is Rattus norvegicus. The data set is described as follows: Toxicity in ovariectomy rat model assessed as reduction in uterine weight at 0.1 to 10 mg/kg/day, po administered for 4 weeks. In kind it is organism-based. Conditions: in vivo, 672 h.
The subject of data set [15] is RAW264.7. Kind of data set: Downregulation of RANKL-induced CathK mRNA expression in mouse RAW264.7 cells at 1 to 5 uM after 4 days by RT-qPCR analysis. In kind it is functional, cell-based.
Data set [16] deals with RAW264.7. Kind of data set: Antiosteoclast activity in mouse RAW264.7 cells assessed as inhibition of RANKL-induced osteoclast differentiation at 20 uM after 5 days by TRAP assay. It is filed as functional. Conditions: RAW264.7, 120 h.
Data set [17] has as its system Rattus norvegicus. The data set is described as follows: Antiosteoporotic effect in ovariectomy rat model assessed as increase in bone mineral density of lumbar spine L3 to L5 at 0.1 mg/kg/day, po administered for 4 weeks by dual-energy X-ray absorptiometry relative to control. It is filed as functional, organism-based.
Data set [18] relates to RAW264.7. The data set is described as follows: Downregulation of RANKL-induced NFATc1 mRNA expression in mouse RAW264.7 cells at 5 uM after 2 days by RT-qPCR analysis. It is filed as functional, cell-based.
Data set [19] is described as follows: Cytotoxicity against mouse RAW264.7 cells assessed as inhibition of cell viability at 20 uM after 24 hrs by MTT assay. It is filed as cell-based. The conditions noted are these: read-out: INH.
Data set [20] concerns RAW264.7. Kind of data set: Downregulation of RANKL-induced c-Fos protein expression in mouse RAW264.7 cells at 5 uM after 2 days by Western blot analysis. In kind it is functional, cell-based.
Data set [21] has as its system RAW264.7. Kind of data set: Antiosteoclast activity in mouse RAW264.7 cells assessed as inhibition of RANKL-induced osteoclast differentiation at 2 uM after 5 days by TRAP assay. In kind it is functional. The conditions noted are these: RAW264.7, 120 h.

Each structure is given as a SMILES string. Activity calls are given as the source filed them. The rule behind the calls is not given here.

Results on one molecule are retold here after ChEMBL document CHEMBL3784938, “Novel heterocyclic ring-fused oleanolic acid derivatives as osteoclast inhibitors for osteoporosis” (Medchemcomm, 2016).

`COc1ccc(S(=O)(=O)n2cc3c(n2)C(C)(C)[C@@H]2CC[C@]4(C)[C@H](CC=C5[C@@H]6CC(C)(C)CC[C@]6(C(=O)NC6CCN(Cc7ccccc7)CC6)CC[C@]54C)[C@@]2(C)C3)cc1`: in the data set on RAW264.7 [1], half-maximal inhibition (IC50) was put at 24 nM. Further, in data set [2], the cytotoxicity at 24 h, 2 µM came out at 0%. Besides, the cytotoxicity at 24 h, 5 µM in data set [3] stood at 0%. Also, the result in the data set with Rattus norvegicus [4] and in the data set on Rattus norvegicus [9] was Active. The inhibition entry in the data set on RAW264.7 [5], with RAW264.7 [6], in the data set on RAW264.7 [11], in the data set on RAW264.7 [12], in the data set on RAW264.7 [13] and in the data set with RAW264.7 [15] was “Active” in each case. For the same molecule, the inhibition result in the data set with RAW264.7 [18] and in the data set on RAW264.7 [20] was “Active” in each case. For the same molecule, the Activity result in the data set with Rattus norvegicus [7], with Rattus norvegicus [10] and in the data set on Rattus norvegicus [14] was “Non-toxic” throughout. Besides, the cytotoxicity at 24 h, 10 µM in data set [8] is 6.6%. Further, the inhibition – broadly, the percentage by which the read-out fell short of the control – at 20 µM in the data set with RAW264.7 [16] was 100%. In addition, the result in the data set with Rattus norvegicus [17] was inactive. The cytotoxicity at 24 h, 20 µM in data set [19] was determined as 58.2%. Further, the inhibition at 2 µM with RAW264.7 [21] turned out to be 90%.
